The values below come from article PMC9100109, “UnbiasedDTI: Mitigating Real-World Bias of Drug-Target Interaction Prediction by Using Deep Ensemble-Balanced Learning” (Molecules, 2022).

The target of this experiment is T1, ACE2: SARS-CoV-2 Spike complex (UniProt P0DTC2+Q9BYF1).
T1 construct: BPS Bioscience Cat: 79936; inferred from capture on a nickel-coated plate; inferred from detection with anti-mouse Fc-HRP; purchased BPS Bioscience 79936
In words: biochemical. The class given is binding, human ACE2 / SARS-CoV-2 spike.

Broadly, the IC50 is the midpoint of a concentration-inhibition curve. Read a low IC50 as inhibition by little substance. As to `CC(=O)N[C@H]1[C@H]([C@H](O)[C@H](O)CO)OC(O)(C(=O)O)C[C@@H]1O` (stereo partly shown) [N-acetyl-neuraminic, N-acetyl-neuraminic acid], the IC50 was determined as 19 nM and the “Lab Results” value is reported as “P (key: P: positive (interacting); N: negative (non-interacting))”.

As to `OC[C@H]1O[C@H](OC[C@H]2O[C@H](OC[C@H]3OC(O)[C@@H](O)[C@@H](O[C@H]4O[C@H](CO)[C@@H](O)[C@H](O)[C@@H]4O)[C@@H]3O)[C@@H](O)[C@@H](O[C@H]3O[C@H](CO)[C@@H](O)[C@H](O)[C@@H]3O)[C@@H]2O)[C@@H](O)[C@@H](O)[C@@H]1O` (stereo partly drawn) [3 α ,6 α -Mannopentaose], the “Lab Results” value is listed as “N (key: P: positive (interacting); N: negative (non-interacting))”; the “activity against the complex of the spike protein and ACE2” value is “inactive”.

As for `CC(=O)N[C@H]1C(O)O[C@H](CO)[C@@H](O[C@@H]2O[C@H](CO)[C@H](O)[C@H](O)[C@H]2O)[C@@H]1O` (stereo partly shown) [N-Acetyllactosamine], the “Lab Results” value is listed as “P (key: P: positive (interacting); N: negative (non-interacting))”.

On to `CC(=O)N[C@H]1[C@H]([C@H](O)[C@H](O)CO)O[C@](OP(=O)([O-])OC[C@H]2O[C@@H](n3ccc(N)nc3=O)[C@H](O)[C@@H]2O)(C(=O)O)C[C@@H]1O.[Na+]` [cytidine-5-monophospho-N-acetylneuraminic acid sodium salt], for which the “Lab Results” value was “P (key: P: positive (interacting); N: negative (non-interacting))”.

With `O=C(CO)N[C@H]1[C@H]([C@H](O)[C@H](O)CO)O[C@](O)(C(=O)O)C[C@@H]1O` [N-Glycolylneuraminic, N-glycolylneuraminic acid], the “Lab Results” value is reported as “P (key: P: positive (interacting); N: negative (non-interacting))”.

Turning to `CC(C)CN(C[C@@H](O)[C@H](Cc1ccccc1)NC(=O)O[C@H]1CO[C@H]2OCC[C@H]21)S(=O)(=O)c1ccc(N)cc1` [darunavir, Darunavir, reference compound], the half-maximal inhibitory concentration (IC50) was 5.5 nM and the “Lab Results” value is reported as “P (key: P: positive (interacting); N: negative (non-interacting))”.

Take `N.O=C(O)C(=O)C[C@@H](O)[C@@H](O)[C@H](O)[C@H](O)CO` [2-keto-3-deoxyoctonate ammonium salt, 2-Keto-3-deoxyoctonate ammonium salt]: the “Lab Results” value is on record as “P (key: P: positive (interacting); N: negative (non-interacting))”.
